Values of other authors, collected in patent US6517814B2, “Macrocyclic chelants useful for metallopharmaceuticals” (Bristol-Myers Squibb Pharma Company, priority 2001, dated 2003).
Where two headings read alike, the source gives them in different places.

Question: For O=C([O-])CN1CCN(CC(=O)[O-])CCN(CC(=O)[O-])CCN(CC(=O)[O-])CC1.[Gd+3] [[Gd(DOTA]^−], which half-life (in 0.1 M HCl) is on record?
Answer: Its half-life is 60.2 h.

Question: Which half-life (decomposes rapidly under acidic conditions) does the source give for O=C([O-])CN(CCN(CC(=O)[O-])CC(=O)[O-])CCN(CC(=O)[O-])CC(=O)[O-].[Gd+3] [[Gd(DTPA]^2−] here?
Answer: Its half-life is roughly 0.0167 h.
